# Species on record: Rattus norvegicus
# Assay: DrugMatrix - Regimen: Daily Repeat
# Format: toxicity, organism-based, Sprague-Dawley
# Set-up: regimen Daily Repeat, gender Male, age 6-8 weeks
# Conditions: in vivo, po, route oral GAVAGE, vehicle .5 % CMC; for ABSOLUTE BASOPHIL / ABSOLUTE EOSINOPHIL / ABSOLUTE LYMPHOCYTE / ABSOLUTE MONOCYTE / ABSOLUTE SEGMENTED NEUTROPHIL / BASOPHIL / EOSINOPHIL / ERYTHROCYTE COUNT / HEMATOCRIT / HEMOGLOBIN / LEUKOCYTE COUNT / LYMPHOCYTE / MEAN CORPUSCULAR HEMOGLOBIN / MEAN CORPUSCULAR HEMOGLOBIN CONCENTRATION / MEAN CORPUSCULAR VOLUME / MONOCYTE / NEUTROPHIL / NUCLEATED RED BLOOD CELLS / PLATELET COUNT: tissue Blood; for ALANINE AMINOTRANSFERASE / ALBUMIN / ALKALINE PHOSPHATASE / ASPARTATE AMINOTRANSFERASE / BLOOD UREA NITROGEN / CARBON DIOXIDE / CHLORIDE / CHOLESTEROL / CREATINE PHOSPHOKINASE / CREATININE / GLUCOSE / LACTATE DEHYDROGENASE / LIPASE / PHOSPHORUS / POTASSIUM / SODIUM / TOTAL BILIRUBIN / TOTAL PROTEIN: tissue Plasma
# [1] = 0 mg/kg, 72 h, dose level Control, time 3 day
# [2] = 0 mg/kg, 120 h, dose level Control, time 5 day
# [3] = 25 mg/kg, 72 h, dose level Low, time 3 day
smiles,measurement,setting,value
COc1cc(/C=C/C(=O)O)ccc1O [FERULATE],ABSOLUTE BASOPHIL,[1],0 CELLS/uL
same,ABSOLUTE EOSINOPHIL,[1],284.5 CELLS/uL
same,ABSOLUTE LYMPHOCYTE,[1],11670.5 CELLS/uL
same,ABSOLUTE MONOCYTE,[1],420.83 CELLS/uL
same,ABSOLUTE SEGMENTED NEUTROPHIL,[1],1024.17 CELLS/uL
same,BASOPHIL,[1],0%
same,EOSINOPHIL,[1],1.67%
same,ERYTHROCYTE COUNT,[1],5.38 x10E6/uL
same,HEMATOCRIT,[1],34.05%
same,HEMOGLOBIN,[1],12.75 G/DL
same,LEUKOCYTE COUNT,[1],13.4 x10E3/uL
same,LYMPHOCYTE,[1],88.33%
same,MEAN CORPUSCULAR HEMOGLOBIN,[1],23.73 pg
same,MEAN CORPUSCULAR HEMOGLOBIN CONCENTRATION,[1],37.43 G/DL
same,MEAN CORPUSCULAR VOLUME,[1],63.4 fL
same,MONOCYTE,[1],2.83%
same,NEUTROPHIL,[1],7.17%
same,NUCLEATED RED BLOOD CELLS,[1],0 /100WBC
same,PLATELET COUNT,[1],1184.67 x10E3/uL
same,ALANINE AMINOTRANSFERASE,[1],45.33 u/L
same,ALBUMIN,[1],4.3 G/DL
same,ALKALINE PHOSPHATASE,[1],388.83 u/L
same,ASPARTATE AMINOTRANSFERASE,[1],84.83 u/L
same,BLOOD UREA NITROGEN,[1],15.5 mg/dL
same,CARBON DIOXIDE,[1],27 mmol/L
same,CHLORIDE,[1],101.8 MEQ/L
same,CHOLESTEROL,[1],76.67 mg/dL
same,CREATINE PHOSPHOKINASE,[1],301 u/L
same,CREATININE,[1],0.21 mg/dL
same,GLUCOSE,[1],168.83 mg/dL
same,LACTATE DEHYDROGENASE,[1],294.83 u/L
same,LIPASE,[1],9.8 u/L
same,PHOSPHORUS,[1],13.25 mg/dL
same,POTASSIUM,[1],6.41 MEQ/L
same,SODIUM,[1],143.72 MEQ/L
same,TOTAL BILIRUBIN,[1],0.22 mg/dL
same,TOTAL PROTEIN,[1],5.98 G/DL
same,ABSOLUTE BASOPHIL,[2],0 CELLS/uL
same,ABSOLUTE EOSINOPHIL,[2],190.67 CELLS/uL
same,ABSOLUTE LYMPHOCYTE,[2],12549.5 CELLS/uL
same,ABSOLUTE MONOCYTE,[2],276 CELLS/uL
same,ABSOLUTE SEGMENTED NEUTROPHIL,[2],1067.17 CELLS/uL
same,BASOPHIL,[2],0%
same,EOSINOPHIL,[2],1.33%
same,ERYTHROCYTE COUNT,[2],5.66 x10E6/uL
same,HEMATOCRIT,[2],35.92%
same,HEMOGLOBIN,[2],13.65 G/DL
same,LEUKOCYTE COUNT,[2],14.08 x10E3/uL
same,LYMPHOCYTE,[2],89%
same,MEAN CORPUSCULAR HEMOGLOBIN,[2],24.12 pg
same,MEAN CORPUSCULAR HEMOGLOBIN CONCENTRATION,[2],38.03 G/DL
same,MEAN CORPUSCULAR VOLUME,[2],63.47 fL
same,MONOCYTE,[2],2%
same,NEUTROPHIL,[2],7.67%
same,NUCLEATED RED BLOOD CELLS,[2],0.17 /100WBC
same,PLATELET COUNT,[2],1251.67 x10E3/uL
same,ALANINE AMINOTRANSFERASE,[2],43.33 u/L
same,ALBUMIN,[2],4.22 G/DL
same,ALKALINE PHOSPHATASE,[2],365.67 u/L
same,ASPARTATE AMINOTRANSFERASE,[2],83.67 u/L
same,BLOOD UREA NITROGEN,[2],18.17 mg/dL
same,CARBON DIOXIDE,[2],28.67 mmol/L
same,CHLORIDE,[2],103.5 MEQ/L
same,CHOLESTEROL,[2],71.5 mg/dL
same,CREATINE PHOSPHOKINASE,[2],284.5 u/L
same,CREATININE,[2],0.21 mg/dL
same,GLUCOSE,[2],161.67 mg/dL
same,LACTATE DEHYDROGENASE,[2],259.67 u/L
same,LIPASE,[2],9.5 u/L
same,PHOSPHORUS,[2],12.45 mg/dL
same,POTASSIUM,[2],6.49 MEQ/L
same,SODIUM,[2],144.25 MEQ/L
same,TOTAL BILIRUBIN,[2],0.2 mg/dL
same,TOTAL PROTEIN,[2],6.1 G/DL
same,ABSOLUTE BASOPHIL,[3],0 CELLS/uL
same,ABSOLUTE EOSINOPHIL,[3],47 CELLS/uL
same,ABSOLUTE LYMPHOCYTE,[3],6476.33 CELLS/uL
same,ABSOLUTE MONOCYTE,[3],108 CELLS/uL
same,ABSOLUTE SEGMENTED NEUTROPHIL,[3],402 CELLS/uL
same,BASOPHIL,[3],0%
same,EOSINOPHIL,[3],1%
same,ERYTHROCYTE COUNT,[3],5.55 x10E6/uL
same,HEMATOCRIT,[3],35.4%
same,HEMOGLOBIN,[3],13.17 G/DL
same,LEUKOCYTE COUNT,[3],7.03 x10E3/uL
same,LYMPHOCYTE,[3],91.67%
same,MEAN CORPUSCULAR HEMOGLOBIN,[3],23.73 pg
same,MEAN CORPUSCULAR HEMOGLOBIN CONCENTRATION,[3],37.2 G/DL
same,MEAN CORPUSCULAR VOLUME,[3],63.8 fL
same,MONOCYTE,[3],1.67%
same,NEUTROPHIL,[3],5.67%
same,NUCLEATED RED BLOOD CELLS,[3],0 /100WBC
same,PLATELET COUNT,[3],1224.33 x10E3/uL
same,ALANINE AMINOTRANSFERASE,[3],45.33 u/L
same,ALBUMIN,[3],4.27 G/DL
same,ALKALINE PHOSPHATASE,[3],484.33 u/L
same,ASPARTATE AMINOTRANSFERASE,[3],84.67 u/L
same,BLOOD UREA NITROGEN,[3],13.67 mg/dL
same,CARBON DIOXIDE,[3],28 mmol/L
same,CHLORIDE,[3],103 MEQ/L
same,CHOLESTEROL,[3],71 mg/dL
same,CREATINE PHOSPHOKINASE,[3],192.33 u/L
same,CREATININE,[3],0.18 mg/dL
same,GLUCOSE,[3],148.33 mg/dL
same,LACTATE DEHYDROGENASE,[3],120.67 u/L
same,LIPASE,[3],9.33 u/L
same,PHOSPHORUS,[3],12.27 mg/dL
same,POTASSIUM,[3],6.28 MEQ/L
same,SODIUM,[3],147.37 MEQ/L
same,TOTAL BILIRUBIN,[3],0.2 mg/dL

# Source: ChEMBL document CHEMBL3885881, “DrugMatrix”
